This note sets out measurements from patent US20230348437A1, “COMPOUNDS, COMPOSITIONS AND METHODS” (Denali Therapeutics Inc., priority 2020, published 2023).

One assay concerns NLRP3 (IL-1β secretion from THP-1 cells). The experiment in a line: IL-1β secretion assay in 384-well plates, PMA differentiated THP-1 cells, LPS and nigericin stimulation. Format: cell-based. To be noted: Homo sapiens, THP-1, read-out: Activity (µM). Here is the method: Compounds as provided herein were tested in the following assay. […] Freezing medium was made up of 90% FBS and 10% DMSO. THP-1 cells were removed from the liquid nitrogen and placed into a 37° C. water bath to thaw, until signs of ice dissipated. The cells were then added to 9 mL of warm cell culture medium and centrifuged for 5 minutes at 1000 rpm. The supernatant was discarded, and the cells were resuspended in new cell culture medium. The THP-1 cells were then split and cultured in the cell culture medium, being passaged every 2-3 days (5×10^5 cells/mL passaged every two days, 3×10^5 cells/mL passaged every three days). Cell density was maintained between 5×10^5-1.5×10^6 viable cells/mL.
PMA was dissolved in DMSO to make a stock solution at 5 mg/mL and stored in 10 µl aliquots at -20° C. for single use. PMA is added to normal growth medium. LPS was diluted with 1 mL of water solution to provide a 1 mg/mL stock solution and stored in 15 µl aliquots at -20° C. for single use. Nigericin is diluted in ice cold 100% ethanol to 5 mg/mL (6.7 mM) and stored in 75 µL aliquots at -20° C. for single use. […] The two control conditions used to qualify and normalize test compound dose-response curves were as follows: High Control = 25 ng/mL LPS, 5 µM Nigericin, 0.5% DMSO, Low Control = 25 ng/mL, LPS, 0.5% DMSO.
THP-1 cells were diluted to provide a suspension at a concentration of 1.0×10^6 cells/mL with the total volume of suspension required to enable the desired number of assay plates. The growth media was supplemented with PMA (5 ng/mL final concentration) and the cells were incubated at 37° C. under a humidified atmosphere of 5% CO2 for 40 h.
All media was carefully aspirated from each culture flask. The cells were washed carefully with 1x DPBS. The cells were then briefly digested with trypsin LE for 5 minutes at 23° C. and immediately resuspended in cell growth media. After resuspension, the cells were centrifuged at 1000 rpm for 3 minutes and the supernatant was discarded. The cells were resuspended in DPBS and once again centrifuged at 1000 rpm for 5 minutes. The supernatant was discarded and the cell pellet was resuspended in serum-free media supplemented with LPS (25 ng/mL final concentration) to enable the distribution of 30 K THP-1 cells within 45 µL of media into each well of 384-well PDL-coated plates. The 384-well plates were then incubated at 37° C. under a humidified atmosphere of 5% CO2 for 2 h. Following this period, test compounds were dispensed by Tecan across the desired concentration range with all wells normalized to a final 0.5 % DMSO concentration. The plates were then incubated at 37° C. under a humidified atmosphere of 5% CO2 for 1 h. Following this period, 5 µL of the […] nigericin stock solution was added to each of the appropriate wells and plates were centrifuged at 1000 rpm for 30 seconds. The plates were the immediately reintroduced to the incubator at 37° C. under a humidified atmosphere of 5% CO2 for 2 h. After this time, 35 µL/well of supernatant was collected and transferred into v-bottom plate and centrifuged at 1000 rpm for 1 minute. These supernatant aliquots were analyzed using an IL-Iβ detection kit as described below. If needed, the test samples could be snap frozen and stored at -80° C. until analyzed.
To prepare each ELISA plate, capture antibody (mAb Mt175) was diluted with PBS to a final concentration of 2 µg/mL and then 20 µL of this solution was added to each well of the ELISA plate. Each plate was allowed to incubate overnight at 4° C. The next day, the capture antibody solution was removed and discarded. […] Each ELISA plate was then allowed to incubate for 1 hour at 23° C. After this time, the blocking buffer was removed and discarded. Each ELISA plate was washed 4 times with PBST. During this time, the v-bottomed plates containing the supernatant aliquots from the assay run were centrifuged at 300 g for 5 minutes before transferring 15 µL/well of the supernatant sample to each ELISA plate. […]
For the molecule `COc1nn(CC(=O)Nc2ncc(F)cn2)c(=O)cc1-c1cc(F)cc(F)c1` [Example 57, 2-[4-(3,5-difluorophenyl)-3-methoxy-6-oxopyridazin-1-yl]-N-(5-fluoropyrimidin-2-yl)acetamide], the IC50 amounted to 1.96 µM.

The assay is the same for the next values; noted with them: Homo sapiens; THP-1 cells, PMA 5 ng/mL, LPS 25 ng/mL, nigericin, IL-1β ELISA, 384-well; read-out: Activity.
With `CC(C)c1nn(C2(C(=O)Nc3ncccn3)CC2)c(=O)cc1-c1cc(F)cc(F)c1` [Example 51, 1-[4-(3,5-difluorophenyl)-3-isopropyl-6-oxo-pyridazin-1-yl]-N-pyrimidin-2-yl-cyclopropanecarboxamide], the IC50 came to 1.14 µM.

On to `CC(C)c1nn(CC(=O)Nc2ncncc2F)c(=O)cc1-c1cc(F)cc(Cl)c1` [Example 46, 2-[4-(3-chloro-5-fluorophenyl)-6-oxo-3-propan-2-ylpyridazin-1-yl]-N-(5-fluoropyrimidin-4-yl)acetamide], for which the IC50 was found to be 0.637 µM.

In the case of `CCOc1cccc(-c2cc(=O)n(CC(=O)N[C@H]3C[C@@](C)(O)C3)nc2C(C)C)c1` [Example 28, 2-[4-(3-ethoxyphenyl)-6-oxo-3-propan-2-ylpyridazin-1-yl]-N-(cis-3-hydroxy-3-methylcyclobutyl)acetamide], the IC50 came to 8.47 µM.

As for `CC(C)c1nn(CC(=O)N[C@H]2C[C@@](C)(O)C2)c(=O)cc1-c1cc(F)cc(F)c1` [Example 21, 2-[4-(3,5-difluorophenyl)-6-oxo-3-propan-2-ylpyridazin-1-yl]-N-(cis-3-hydroxy-3-methylcyclobutyl)acetamide], the IC50 was 0.902 µM.

`CC(C)c1nn(CC(=O)N[C@@H]2CCCN(C3CC3)C2)c(=O)cc1-c1cccc(F)c1` [Example 39, N-[(3R)-1-cyclopropylpiperidin-3-yl]-2-[4-(3-fluorophenyl)-6-oxo-3-propan-2-ylpyridazin-1-yl]acetamide]: the IC50 worked out at 0.49 µM.

As to `O=C(Cn1nc(C2CC2)c(-c2cc(F)cc(F)c2)cc1=O)Nc1ncncc1F` [Example 48, 2-[3-cyclopropyl-4-(3,5-difluorophenyl)-6-oxopyridazin-1-yl]-N-(5-fluoropyrimidin-4-yl)acetamide], the IC50 worked out at 1.64 µM.

On to `CCN1CCC[C@@H](NC(=O)Cn2nc(C(C)C)c(-c3cccc(C4CCC4)c3)cc2=O)C1` [Example 31, 2-[4-(3-cyclobutylphenyl)-6-oxo-3-propan-2-ylpyridazin-1-yl]-N-[(3R)-1-ethylpiperidin-3-yl]acetamide], for which the IC50 was determined as 6.98 µM.

As for `CC(C)c1nn(CC(=O)Nc2ncc(F)cc2F)c(=O)cc1-c1cc(F)cc(F)c1` [Example 45], the IC50 came out at 0.596 µM.

`Cc1ccccc1-c1cc(=O)n(CC(=O)N[C@H]2C[C@@](C)(O)C2)nc1C(C)C` [Example 26]: the IC50 was found to be 6.66 µM.

Take `CC(C)c1nn(CC(=O)N[C@H]2C[C@@](C)(O)C2)c(=O)cc1-c1cccc(F)c1F` [Example 25, 2-[4-(2,3-difluorophenyl)-6-oxo-3-propan-2-ylpyridazin-1-yl]-N-(cis-3-hydroxy-3-methylcyclobutyl)acetamide]: the IC50 stood at 1.82 µM.

As for `Cc1c(-c2cccc(F)c2)c(C(C)C)nn(CC(=O)Nc2ncncc2F)c1=O` [Example 36, 2-[4-(3-fluorophenyl)-5-methyl-6-oxo-3-propan-2-ylpyridazin-1-yl]-N-(5-fluoropyrimidin-4-yl)acetamide], the IC50 worked out at 1 µM.

For `CC(C)c1nn(CC(=O)Nc2ncc(F)cn2)c(=O)cc1-c1cc(F)cc(F)c1` [Example 44], the IC50 was 0.236 µM.

Take `CC(C)c1nn(CC(=O)Nc2ncc(F)cn2)c(=O)cc1-c1cncc(F)c1` [Example 54, 2-[4-(5-fluoropyridin-3-yl)-6-oxo-3-propan-2-ylpyridazin-1-yl]-N-(5-fluoropyrimidin-2-yl)acetamide]: the IC50 is 6.98 µM.

For `CC(C)c1nn(CC(=O)Nc2ncncc2F)c(=O)cc1-c1cc(F)cc(C2CC2(F)F)c1` (stereo not drawn) [Example 47, 2-[4-[3-(2,2-difluorocyclopropyl)-5-fluorophenyl]-6-oxo-3-propan-2-ylpyridazin-1-yl]-N-(5-fluoropyrimidin-4-yl)acetamide], the IC50 is 8.45 µM.

Take `Cc1ccc(F)c(-c2cc(=O)n(CC(=O)N[C@H]3C[C@@](C)(O)C3)nc2C(C)C)c1` [Example 23, 2-[4-(2-fluoro-5-methylphenyl)-6-oxo-3-propan-2-ylpyridazin-1-yl]-N-(cis-3-hydroxy-3-methylcyclobutyl)acetamide]: the IC50 came out at 1.89 µM.

Turning to `CCN1CCC[C@@H](NC(=O)Cn2nc(C(C)C)c(-c3cccc4ccccc34)cc2=O)C1` [Example 29], the IC50 worked out at 0.874 µM.

With `CC(C)c1nn(CC(=O)Nc2ncccc2F)c(=O)cc1-c1cccc(F)c1` [Example 41, 2-[4-(3-fluorophenyl)-6-oxo-3-propan-2-ylpyridazin-1-yl]-N-(3-fluoropyridin-2-yl)acetamide], the IC50 came to 7.21 µM.

For the molecule `O=C(Cn1nc(C2CCC2)c(-c2cc(F)cc(F)c2)cc1=O)Nc1ncc(F)cn1` [Example 56, 2-[3-cyclobutyl-4-(3,5-difluorophenyl)-6-oxopyridazin-1-yl]-N-(5-fluoropyrimidin-2-yl)acetamide], the IC50 amounted to 0.713 µM.

For `O=C(Cn1nc(C(F)F)c(-c2cc(F)cc(F)c2)cc1=O)Nc1ncc(F)cn1` [Example 53, 2-[3-(difluoromethyl)-4-(3,5-difluorophenyl)-6-oxopyridazin-1-yl]-N-(5-fluoropyrimidin-2-yl)acetamide], the IC50 amounted to 2.77 µM.

With `CC(C)c1nn(CC(=O)Nc2ncncc2F)c(=O)cc1-c1cc(F)cc(F)c1` [Example 42, 2-[4-(3,5-difluorophenyl)-6-oxo-3-propan-2-ylpyridazin-1-yl]-N-(5-fluoropyrimidin-4-yl)acetamide], the IC50 amounted to 0.32 µM.

With `CC(C)c1nn(CC(=O)Nc2ncncc2F)c(=O)c(C(F)F)c1-c1cccc(F)c1` [Example 37, 2-[5-(difluoromethyl)-4-(3-fluorophenyl)-6-oxo-3-propan-2-ylpyridazin-1-yl]-N-(5-fluoropyrimidin-4-yl)acetamide], the IC50 turned out to be 30.1 µM.

`CCOc1nn(CC(=O)N[C@H]2C[C@@](C)(O)C2)c(=O)cc1-c1ccccc1` [Example 34]: the IC50 is 29.5 µM.

For the molecule `CCN1CCC[C@@H](NC(=O)Cn2nc(C(C)C)c(-c3cc(F)cc(C4CC4)c3)cc2=O)C1` [Example 30, 2-[4-(3-cyclopropyl-5-fluorophenyl)-6-oxo-3-propan-2-ylpyridazin-1-yl]-N-[(3R)-1-ethylpiperidin-3-yl]acetamide], the IC50 turned out to be 1.3 µM.

As to `CCN1CCC[C@@H](NC(=O)Cn2nc(C(C)C)c(-c3cc(F)cc(F)c3F)cc2=O)C1` [Example 32, N-[(3R)-1-ethylpiperidin-3-yl]-2-[6-oxo-3-propan-2-yl-4-(2,3,5-trifluorophenyl)pyridazin-1-yl]acetamide], the IC50 was found to be 0.649 µM.

For the molecule `Cc1cccc(-c2cc(=O)n(CC(=O)N[C@H]3C[C@@](C)(O)C3)nc2C(C)C)c1F` [Example 22, 2-[4-(2-fluoro-3-methylphenyl)-6-oxo-3-propan-2-ylpyridazin-1-yl]-N-(cis-3-hydroxy-3-methylcyclobutyl)acetamide], the IC50 turned out to be 1.57 µM.

With `O=C(Cn1nc(CC(F)(F)F)c(-c2cc(F)cc(F)c2)cc1=O)Nc1ncncc1F` [Example 50, 2-[4-(3,5-difluorophenyl)-6-oxo-3-(2,2,2-trifluoroethyl)pyridazin-1-yl]-N-(5-fluoropyrimidin-4-yl)acetamide], the IC50 came to 1.64 µM.
